In patent publication US11220496B2, “Compounds and method for treating autoimmune diseases” (Rigel Pharmaceuticals, Inc., priority 2013, dated 2022):
Counter-ions that a name gives are not always drawn.

Experiment: Human primary T-cell proliferation stimulated by IL-2 (CellTiter-Glo)
Assay type: cell-based
Conditions: primary human T-cells, IL-2 stimulated proliferation, 72 hours, ATP readout; read-out: Activity (IC50, inhibition of JAK3 activity)
Excerpt: One means of assaying for such inhibition is detection of the effect of the 2,4-substituted pyrimidinediamine compounds on the upregulation of downstream gene products. For example, the activity of the disclosed compounds may be characterized by assaying the effect of the 2,4-substituted pyrimidinediamine compounds described herein on the proliferative response of primary human T-cells. In this assay, primary human T-cells derived from peripheral blood and pre-activated through stimulation of the T-cell receptor and CD28, proliferate in culture in response to the cytokine Interleukin-2 (IL-2). This proliferative response is dependent on the activation of JAK1 and JAK3 tyrosine kinases, which phosphorylate and activate the transcription factor Stat-5. The primary human T-cells are incubated with the 2,4-substituted pyrimidinediamine compounds in the presence of IL-2 for 72 hours and at the assay endpoint intracellular ATP concentrations are measured to assess cell viability. A reduction in cell proliferation compared to control conditions is indicative of inhibition of the JAK kinase pathway.
Primary human T-cells derived from peripheral blood and pre-activated through stimulation of the T-cell receptor and CD28, proliferate in vitro in response to the cytokine Interleukin-2 (IL-2). This proliferative response is dependent on the activation of JAK-1 and JAK-3 tyrosine kinases, which phosphorylate and activate the transcription factor Stat-5.
Human primary T-cells were prepared as follows. Whole blood was obtained from a healthy volunteer, mixed 1:1 with PBS, layered on to Ficoll Hypaque (Amersham Pharmacia Biotech, Piscataway, N.J., Catalog #17-1440-03) in 2:1 blood/PBS:ficoll ratio and centrifuged for 30 min at 4° C. at 1750 rpm. The lymphocytes at the serum: ficoll interface were recovered and washed twice with 5 volumes of PBS. The cells were resuspended in Yssel's medium (Gemini Bio-products, Woodland, Calif., Catalog #400-103) containing 40 U/mL recombinant IL2 (R and D Systems, Minneapolis, Minn., Catalog #202-IL (20 μg)) and seeded into a flask pre-coated with 1 μg/mL anti-CD3 (BD Pharmingen, San Diego, Calif., Catalog #555336) and 5 μg/mL anti-CD28 (Immunotech, Beckman Coulter of Brea Calif., Catalog #IM1376). The primary T-cells were stimulated for 3-4 days, then transferred to a fresh flask and maintained in RPMI with 10% FBS and 40 U/mL IL-2.
The day prior to the assay set up, primary T-cells were centrifuged and resuspended in fresh RPMI with 10% FBS but without IL-2 and starved overnight. For the assay, the primary T-cells were centrifuged and resuspended Yssel's medium at 2×10^6 cells/mL. 50 μL of cell suspension containing 80 U/mL IL-2 was added to each well of a flat bottom 96 well black plate. For the unstimulated control, IL-2 was omitted from the last column on the plate. Compounds were serially diluted in dimethyl sulfoxide (DMSO, 99.7% pure, cell culture tested, Sigma-Aldrich, St. Louis, Mo., Catalog No. D2650) from 5 mM in 3-fold dilutions, and then diluted 1:250 in Yssel's medium. 50 μL of 2× compound was added per well in duplicate and the cells were allowed to proliferate for 72 hours at 37° C.
Proliferation was measured using CellTiter-Glo® Luminescent Cell Viability Assay (Promega), which determines the number of viable cells in culture based on quantitation of the ATP present, as an indicator of metabolically active cells. The substrate was thawed and allowed to come to ambient temperature. After mixing the Cell Titer-Glo reagent and diluent together, 100 μL was added to each well. The plates were mixed on an orbital shaker for two minutes to induce lysis and incubated at ambient temperature for an additional ten minutes to allow the signal to equilibrate. Detection was performed using a Wallac Victor2 1420 multilabel counter purchased from Perkin Elmer, Shelton, Conn.

## Cc1cnc(Nc2cc(C)c(C)c(C)c2)nc1Nc1ccc2oc(=O)[nH]c2c1 [Compound A1, N2-(3,4,5-trimethyl)phenyl-5-methyl-N4-(2-oxo-2,3-dihydro-1,3-benzoxazol-5-yl)-2,4-pyrimidinediamine]
  IC50: < 500 nM

## Cc1cnc(Nc2ccc(C(=O)Nc3ccccc3)cc2)nc1Nc1ccc2oc(=O)[nH]c2c1 [Compound A2, 4-[5-methyl-4-(2-oxo-2,3-dihydro-benzoxazol-5-ylamino)-pyrimidin-2-ylamino]-N-phenyl-benzamide]
  IC50: < 500 nM

## Cc1cnc(Nc2ccc(C(N)=O)cc2)nc1Nc1ccc2oc(=O)[nH]c2c1 [Compound A3, N4-(benzo[d]oxazol-2(3H)-on-5-yl)-N2-(4-aminocarbonylphenyl)-5-methylpyrimidine-2,4-diamine]
  IC50: < 500 nM

## Cc1cnc(Nc2ccc(C(=O)NC3CCC3)cc2)nc1Nc1ccc2oc(=O)[nH]c2c1 [Compound A5, N-cyclobutyl-4-[5-methyl-4-(2-oxo-2,3-dihydro-benzooxazol-5-ylamino)-pyrimidin-2-ylamino]-benzamide]
  IC50: < 500 nM

## Cc1cc(CF)cc(Nc2ncc(C)c(Nc3ccc4oc(=O)[nH]c4c3)n2)c1 [Compound A7, 5-(2-(3-(fluoromethyl)-5-methylphenylamino)-5-methylpyrimidin-4-ylamino)benzo[d]oxazol-2(3H)-one]
  IC50: < 500 nM

## Cc1ccc(Nc2ncc(C)c(Nc3ccc4oc(=O)[nH]c4c3)n2)cc1F [Compound A8, N2-(3-fluoro-4-methyl)phenyl-5-methyl-N4-(2-oxo-2,3-dihydro-1,3-benzoxazol-5-yl)-2,4-pyrimidinediamine]
  IC50: < 500 nM

## Cc1ccc(Nc2ncc(C)c(Nc3ccc4oc(=O)[nH]c4c3)n2)cc1C [Compound A10, 5-[2-(3,4-dimethyl-phenylamino)-5-methyl-pyrimidin-4-ylamino]-3H-benzooxazol-2-one]
  IC50: < 500 nM

## COc1cc(Nc2ncc(C)c(Nc3ccc4oc(=O)[nH]c4c3)n2)cc(Cl)c1OC [Compound A11, 5-(2-(3-chloro-4,5-dimethoxyphenylamino)-5-methylpyrimidin-4-ylamino)benzo[d]oxazol-2(3H)-one]
  IC50: < 500 nM

## Cc1cnc(Nc2ccc3cnoc3c2)nc1Nc1ccc2oc(=O)[nH]c2c1 [Compound A12, 5-(2-(benzo[d]isoxazol-6-ylamino)-5-methylpyrimidin-4-ylamino)benzo[d]oxazol-2(3H)-one]
  IC50: < 500 nM

## Cc1cnc(Nc2cc(C)c(F)c(C)c2)nc1Nc1ccc2oc(=O)[nH]c2c1 [Compound A14, N2-(3,5-dimethyl-4-fluoro)phenyl-5-methyl-N4-(2-oxo-2,3-dihydro-1,3-benzoxazol-5-yl)-2,4-pyrimidinediamine]
  IC50: < 500 nM

## COc1cc(Nc2ncc(C)c(Nc3ccc4oc(=O)n(COP(=O)(O)O)c4c3)n2)cc(C(F)(F)F)c1 [Compound A15, N2-(3-methoxy-5-trifluoromethyl)phenyl-5-methyl-N4-[3-(phosphonooxy)methyl-2-oxo-2,3-dihydro-1,3-benzoxazol-5-yl]-2,4-pyrimidinediamine bis-sodium salt]
  IC50: 500 to 5000 nM

## COc1cc(Nc2ncc(C)c(Nc3ccc4oc(=O)n(COP(=O)(O)O)c4c3)n2)cc(C)c1F [Compound A16, Sodium (5-(2-(4-fluoro-3-methoxy-5-methylphenylamino)-5-methylpyrimidin-4-ylamino)-2-oxobenzo[d]oxazol-3(2H)-yl)methyl phosphate]
  IC50: 500 to 5000 nM

## Cc1cnc(Nc2cc(C)c(C)c(C)c2)nc1Nc1ccc2oc(=O)n(COP(=O)(O)O)c2c1 [Compound A17, 5-methyl-N4-[3-(phosphonooxy)methyl-2-oxo-2,3-dihydro-1,3-benzoxazol-5-yl]-N2-(3,4,5-trimethyl)phenyl-2,4-pyrimidinediamine bis-sodium salt]
  IC50: 500 to 5000 nM

## Cc1cnc(Nc2cc(C)c(F)c(C)c2)nc1Nc1ccc2oc(=O)n(COP(=O)(O)O)c2c1 [Compound A18, N2-(3,5-dimethyl-4-fluoro)phenyl-5-methyl-N4-[3-(phosphonooxy)methyl-2-oxo-2,3-dihydro-1,3-benzoxazol-5-yl]-2,4-pyrimidinediamine bis-sodium salt]
  IC50: 500 to 5000 nM

## COc1cc(Nc2ncc(C)c(Nc3ccc4oc(=O)[nH]c4c3)n2)cc(C)c1F [Compound I-432, 5-(2-(4-fluoro-3-methoxy-5-methylphenylamino)-5-methylpyrimidin-4-ylamino)benzo[d]oxazol-2(3H)-one]
  IC50: < 500 nM
